The source of these data is patent US11332438B2, “Creatine prodrugs, compositions and methods of use thereof” (Ultragenyx Pharmaceutical Inc., priority 2017, dated 2022).

Where only a bound is given, the exact number is not on record here.

The nature of series [1]: Chemical stability in phosphate buffered saline (PBS). It counts as physicochemical. The note with it: Table 2A, 50 μM prodrug. The procedure, abridged:
(§1)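 Incubations used 50 μM compound at 37 °C in phosphate buffered saline, fasted simulated intestinal fluid without pancreatin, or fasted simulated gastric fluid without pepsin.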

The nature of series [2]: Chemical stability in simulated gastric fluid (SGF) without pepsin. The class given is physicochemical. The note with it: Table 2A, 50 μM prodrug. The procedure, abridged: as §1
The nature of series [3]: Chemical stability in simulated intestinal fluid (SIF) without pancreatin. The class given is physicochemical. To be noted: Table 2A, 50 μM prodrug. As for the experimental part: Chemical stability of creatine prodrugs in phosphate buffered saline (PBS), simulated intestinal fluid (SIF) without pancreatin, simulated gastric fluid (SGF) without pepsin were determined by LC-UV, LC-CAD, LC-UV-CAD or LC-MS/MS as appropriate. Creatine prodrugs of the present disclosure (50 μM) were incubated at 37° C. according to described protocols and prodrug levels were compared between t=0, t=15, t=60, and t=120 mins by peak area ratio to determine the percentage remained at t=120 mins (2 h).
Protocol for PBS, SIF and SGF stability for screening:
Prodrugs (50 μM) were incubated in PBS, FaSSIF (Biorelevant) or FaSSGF (Biorelevant) at 37° C.

The nature of series [4]: In vivo IV dosing in CrT KO mice: prodrug, d3-Cr and d3-Crn in brain (Table 5). Here is the method:
A creatine prodrug is administered as an intravenous bolus injection to groups of three to six adult male CD1 mice at an appropriate creatine prodrug dose equivalent per kg body weight. Animals are conscious at the time of the experiment. Blood samples (0.3 mL) are obtained via a jugular vein cannula at intervals over 8 hours following IV dosing. Blood is processed into plasma, then the plasmais immediately frozen at −80° C. until analyzed by LC-MS/MS. Samples may also be taken form the CSF or other appropriate biological fluid. Brains were collected and flash frozen immediately in liquid nitrogen. Brains were homogenized in 100 mM KPI buffer with a cocktail of anti-proteases on the same day as the sample preparation required for LC-MS/MS analysis.
Several prodrugs with either free COOH group and ester linkage and macrocycles were selected for IV dosing in animal study to assess PK and d3-Cr release in brain in vivo. Prodrugs were IV dosed in CrT KO mice at 10, 15, or 25 mg/kg in animal studies. Mouse brain homogenates (MBH) were prepared from brains collected from mice after dosing. Levels of prodrug, d3-Cr and d3-Crn were quantified in brain and expressed in brain concentration (for macrocycle prodrugs) or AUC (for linear prodrugs) over time. Very few prodrugs were detected in MBH.

Series [5] is described as follows: Liver microsome stability, mouse. To be noted: liver microsomes, pH 7.4, Table 2A, read-out: Microsome Stability Mouse t1/2. The class given is in vitro ADME. The method in brief: (§2)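 Test compound incubated with mouse or human liver microsomes and NADPH in 0.1 M potassium phosphate, 1.0 mM EDTA, pH 7.4, with a 60-min no-NADPH control. Samples quenched with ACN containing internal standard at 0, 5, 10, 20, 30 and 60 min, then analysed by LC/MS.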
In general terms: Microsomes from liver hold many membrane-bound enzymes, among them those of drug oxidation.

Series [6] in a line: Liver microsome stability, human. It counts as in vitro ADME. To be noted: liver microsomes, pH 7.4, Table 2A, read-out: Microsome Stability Human t1/2. The method in brief: as §2
Series [7] in a line: Plasma stability, mouse plasma. The class given is in vitro ADME. To be noted: Table 2A, 37 °C, read-out: Plasma Stability Mouse t1/2. The procedure, abridged: (§3)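 Test article, 1 µM final (from 10% DMSO/water), incubated at 37 °C in plasma adjusted to pH 7.4 if needed; samples at 0, 2, 5, 15 and 30 min quenched with ice-cold 80% acetonitrile. Remaining compound by LC-MS/MS; half-life in minutes calculated.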

Series [8] can be described thus: Plasma stability, human plasma. The class given is in vitro ADME. The note with it: Table 2A, 37 °C, read-out: Plasma Stability Human t1/2. The procedure, abridged:
as §3

Regarding `[2H]C([2H])([2H])N(CC(=O)[O-])C(=N)NC(=O)CCCCCCCCCC.[Na+]` [Compound 4], the “Chemical Stability PBS % T0 at 2 hours at 37 °C.” value (from here on “Chemical Stability PBS % T0”) in series [1] was determined as 69%. In addition, the “Chemical Stability SGF, no enzyme % T0 at 2 hours at 37 °C.” value (“Chemical Stability SGF, no enzyme % T0” below) in series [2] was 94%. Besides, in series [3], the “Chemical Stability SIF, no enzyme % T0 at 2 hours at 37 °C.” value (from here on “Chemical Stability SIF, no enzyme % T0”) was 61%. Besides, the “crossing of BBB (in words)” value in series [4] (CrT KO mice, IV dosing) is “did not seem to cross BBB”. For the same molecule, the “AUClast d3-Cr in the brain” value in series [4] (IV 10 mg/kg, CrT KO mouse brain, BQL d3-Cr = 13.7 ng/mL) is listed as “BQL”. In addition, the “AUClast d3-Crn in the brain” value in series [4] (IV 10 mg/kg, CrT KO mouse brain, BQL d3-Crn = 1.5 ng/mL) is listed as “BQL”. Moreover, the “AUClast prodrug in the brain” value in series [4] (IV 10 mg/kg, CrT KO mouse brain, BQL prodrug = 41.2 ng/mL) is given as “BQL”.

Turning to `[2H]C([2H])([2H])N(CC(=O)[O-])C(=N)NC(=O)CCC/C=C\C/C=C\C/C=C\C/C=C\CCCCC.[Na+]` [Compound 22], the half-life at 10 μM in series [5] came to 0.15 h; in series [6], 0.4 h. For the same molecule, the half-life in series [7] was more than 3 h; in series [8] it was 2.17 h. The “Chemical Stability PBS % T0” value in series [1] stood at 35%. Also, in series [2], the “Chemical Stability SGF, no enzyme % T0” value is 30%. Further, in series [3], the “Chemical Stability SIF, no enzyme % T0” value was 86%.

Take `[2H]C([2H])([2H])N(CC(=O)[O-])C(=N)NC(=O)CCCCC/C=C\CCCCCCCCCC.[Li+]` [Compound 24]: the half-life at 10 μM in series [5] was determined as 1.37 h; in series [6], 1.3 h. The half-life in series [7] and in series [8] was more than 3 h in each case. Besides, the “Chemical Stability PBS % T0” value in series [1] was 150%. Further, the “Chemical Stability SGF, no enzyme % T0” value in series [2] was 39%. Also, the “Chemical Stability SIF, no enzyme % T0” value in series [3] is 74%.

As to `[2H]C([2H])([2H])N(CC(=O)OCC)C(=N)NC(=O)CCCCCCCCCCCC` [Compound 46], the half-life in series [7] and in series [8] was less than 0.0833 h each time. In addition, the “Chemical Stability PBS % T0” value in series [1] was 0%. Further, the “Chemical Stability SGF, no enzyme % T0” value in series [2] was 111%. Moreover, the “Chemical Stability SIF, no enzyme % T0” value in series [3] is 45%.
